Measurements: patent publication US8207157B2, “Methods and compositions for repelling arthropods” (The United States of America, as represented by the …, priority 2006, dated 2012)

Assays:
[1] = test system: female Aedes aegypti mosquitoes; test: Non-competitive olfactometer bioassay of absolute attraction to attractants with or without candidate inhibitors; type: in vivo; details: for Attraction with 50 μL 1-MPZ mean ± SE (%): 3 min; for Attraction Mean ± SE (%): 50 μL heterocycle combined with 500 μL 3-compound attractant blend, line Blend = attractant alone
[2] = test system: Anopheles albimanus mosquitoes; test: Competitive (two-port) olfactometer bioassay of attractants and inhibitors; type: in vivo; details: competing port: B + (1-MPZ) + (4-MM)
female Ae. aegypti = test: as above; type: in vivo, Aedes aegypti
Excerpt: Mosquitoes choose to fly upwind into a port with the treatment or choose to remain in the cage. It is clear that in competition, these mosquitoes preferred the natural human odors over the blend by about a 5:1 margin.

CN1CCNCC1 [1-MPZ, 1-methylpiperazine]
Attraction with 50 μL 1-MPZ mean ± SE (%) ([1]; attractant: 1 mL 3-compound blend): 12.8 ± 1.8%
Attraction with 50 μL 1-MPZ mean ± SE (%) ([1]; attractant: human arm/hand odor): 23.5 ± 3.0%
Attraction mean ± SE (%), Treatment 2 ([2]; port: B + (1-MPZ)): 9.7 ± 3.3%
Total Catch (%) (female Ae. aegypti; both ports: Human + 1-MPZ (50 μL) vs Blend, 97.2% without 1-MPZ): 78.1%
Attraction mean ± SE (%), Treatment 1 (female Ae. aegypti; port: B + (1-MPZ), competing port: B + (1-M-4-OPZ)): 4.6 ± 1.5%
Attraction mean ± SE (%), Treatment 2 (female Ae. aegypti; port: B + (1-MPZ), competing port: B + (1-MPZ) + (4-MM)): 5.1 ± 1.1%
Attraction mean ± SE (%), Treatment 1 (female Ae. aegypti; port: B + (1-MPZ), competing port: B + (4-MM)): 5.4 ± 1.3%
Attraction mean ± SE (%), Treatment with Inhibitor (female Ae. aegypti; port: Blend + inhibitor (50 μL each), competing port: Blend): 3.4 ± 1.0%
Attraction mean ± SE (%), Treatment with Inhibitor (female Ae. aegypti; port: Blend + inhibitor (50 μL each), competing port: RH odors): 0.9 ± 0.3%
Attraction mean ± SE (%), Treatment with Inhibitor (female Ae. aegypti; port: RH odors + inhibitor (50 μL each), competing port: Blend): 14.1 ± 2.7%
Attraction mean ± SE (%), Treatment with Inhibitor (female Ae. aegypti; port: RH odors + inhibitor (50 μL each), competing port: LH odors): 7.7 ± 1.2%
Attraction ± SE (%), Treatment 1 port (female Ae. aegypti; port: human odor + 50 μL 1-MPZ, competing port: Blend): 29.5 ± 3.2%

OCCN1CCN(CCO)CC1 [1,4-bis(2-hydroxyethyl)piperazine]
Attraction Mean ± SE (%) ([1]; listed as 1,4-bis (2-hydroxyethyl)piperazine-2,2′-1,4-diyldiethanol): 73%

CN1CCOCC1 [4-MM, 4-methylmorpholine]
Attraction mean ± SE (%), Treatment 2 ([2]; port: B + (4-MM)): 5.2 ± 2.0%
Attraction mean ± SE (%), Treatment 2 (female Ae. aegypti; port: B + (4-MM), competing port: B + (1-MPZ)): 8.0 ± 1.1%
Attraction mean ± SE (%), Treatment 2 (female Ae. aegypti; port: B + (4-MM), competing port: B + (1-MPZ) + (4-MM)): 5.1 ± 1.8%

CCCCCCCCN1CCN(C)CC1 [1M-4-OPZ, 1-methyl-4-octylpiperazine]
Attraction mean ± SE (%), Treatment 2 (female Ae. aegypti; port: B + (1-M-4-OPZ), competing port: B + (1-MPZ)): 24.5 ± 4.4%

C1CNCCN1 [piperazine]
Attraction Mean ± SE (%) [1]: 41.4%
